Data published in patent US20230141600A1, “IMIDAZOPYRAZINE DERIVATIVES” (priority 2020, published 2023).

These molecules were tested on Acinetobacter baumannii ATCC17961 (assay: 90% growth inhibitory concentration (IC90) determination, antimicrobial susceptibility testing). Settings: 90% growth inhibition, Iso-Sensitest broth, OD 600 nm over 16 h, 35±2° C.; read-out: ATCC 17961 IC90.
Type: cell-based
Experimental: Antimicrobial Susceptibility Testing:
90% Growth Inhibitory Concentration (IC90) Determination
The in vitro antimicrobial activity of the compounds was determined according to the following procedure:
The assay used a 10-points Iso-Sensitest broth medium to measure quantitatively the in vitro activity of the compounds against Acinetobacter baumannii ATCC17961 and ATCC17978.
Stock compounds in DMSO were serially twofold diluted (e.g. range from 50 to 0.097 μM final concentration) in 384 wells microtiter plates and inoculated with 49 μl the bacterial suspension in Iso-Sensitest medium to have a final cell concentration of ˜5×10^(5) CFU/ml in a final volume/well of 50 ul/well. Microtiter plates were incubated at 35±2° C.
Bacterial cell growth was determined with the measurement of optical density at λ=600 nm each minutes over a time course of 16 h. Growth inhibition was calculated during the logarithmic growth of the bacterial cells with determination of the concentration inhibiting 50% (IC50) and 90% (IC90) of the growth.
Table 2 provides the 90% growth inhibitory concentrations (IC90) in micromoles per liter of the compounds of present invention obtained against the strain Acinetobacter baumannii ATCC17961.

Row | SMILES | IC90 [nM]
1 | CCc1cc(Nc2nccn3c(-c4ccc(OC(F)F)c(F)c4F)cnc23)ccc1C(=O)NCCC1CC[N+](C)(CC2CNC2)CC1 (stereo not shown) [Example 91, N-[2-[1-(azetidin-3-ylmethyl)-1-methyl-piperidin-1-ium-4-ylethyl]-4-[[3-[4-(difluoromethoxy)-2,3-difluoro-phenyl]imidazo[1,2-a]pyrazin-8-yl]amino]-2-ethyl-benzamide Diformate] | 834

Same assay, conditions: Acinetobacter baumannii, ATCC17961, 16 h, 90% growth inhibition, Iso-Sensitest broth, OD 600 nm over 16 h, 35±2° C.; read-out: ATCC 17961 IC90

Row | SMILES | IC90 [nM]
2 | CCc1cc(Nc2nccn3c(-c4ccc(OC(F)F)c(F)c4F)cnc23)ccc1C(=O)NCCCCC[N+](C)(C)CC(=O)N1CCNCC1 [Example 79, 5-[[4-[[3-[4-(Difluoromethoxy)-2,3-difluoro-phenyl]imidazo[1,2-a]pyrazin-8-yl]amino]-2-ethyl-benzoyl]amino]pentyl-dimethyl-(2-oxo-2-piperazin-1-yl-ethyl)ammonium bis(2,2,2-trifluoroacetate)] | 82.2
3 | CCc1cc(Nc2nccn3c(-c4ccc(OC(F)F)c(F)c4F)cnc23)ccc1C(=O)NCC1C2C[N+](C)(CC3CNC3)CC12 (stereo not shown) [Example 80, N-[[3-(azetidin-3-ylmethyl)-3-methyl-3-azoniabicyclo[3.1.1]hexan-6-yl]methyl]-4-[[3-[4-(difluoromethoxy)-2,3-difluoro-phenyl]imidazo[1,2-a]pyrazin-8-yl]amino]-2-ethyl-benzamide bis(2,2,2-trifluoroacetate)] | 95.9
4 | CCc1cc(Nc2nccn3c(-c4ccc(OC(F)F)c(F)c4F)cnc23)ccc1C(=O)N1CCN(C(=O)C2CC[N+](C)(CC3CNC3)CC2)CC1 (stereo not shown) [Example 81, 1-(Azetidin-3-ylmethyl)-4-(4-(4-((3-(4-(difluoromethoxy)-2,3-difluorophenyl)imidazo[1,2-a]pyrazin-8-yl)amino)-2-ethylbenzoyl)piperazine-1-carbonyl)-1-methylpiperidin-1-ium 2,2,2-trifluoroacetate] | 107
5 | CCc1cc(Nc2nccn3c(-c4ccc(OC(F)F)c(F)c4F)cnc23)ccc1C(=O)N1CCN(C(=O)C2CC[N+](C)(CCN)CC2)CC1 (stereo not shown) [Example 83, [4-[1-(2-aminoethyl)-1-methyl-piperidin-1-ium-4-carbonyl]piperazin-1-yl]-[4-[[3-[4-(difluoromethoxy)-2,3-difluoro-phenyl]imidazo[1,2-a]pyrazin-8-yl]amino]-2-ethyl-phenyl]methanone bis(2,2,2-trifluoroacetate)] | 127
6 | CCc1cc(Nc2nccn3c(-c4ccc(OC(F)F)c(F)c4F)cnc23)ccc1C(=O)N1CCN(C(=O)C2CC[N+](C)(CC3CCNC3)CC2)CC1 (stereo not shown) [Example 84, [4-[[3-[4-(difluoromethoxy)-2,3-difluoro-phenyl]imidazo[1,2-a]pyrazin-8-yl]amino]-2-ethyl-phenyl]-[4-[1-methyl-1-(pyrrolidin-3-ylmethyl)piperidin-1-ium-4-carbonyl]piperazin-1-yl]methanone bis(2,2,2-trifluoroacetate)] | 132
7 | CCc1cc(Nc2nccn3c(-c4ccc(OC(F)F)c(F)c4F)cnc23)ccc1C(=O)N1CCN(C(=O)C2CC[N+](C)(CCNC)CC2)CC1 (stereo not shown) [Example 85, [4-[[3-[4-(difluoromethoxy)-2,3-difluoro-phenyl]imidazo[1,2-a]pyrazin-8-yl]amino]-2-ethyl-phenyl]-[4-[1-methyl-1-[2-(methylamino)ethyl]piperidin-1-ium-4-carbonyl]piperazin-1-yl]methanone bis(2,2,2-trifluoroacetate)] | 147
8 | CCc1cc(Nc2nccn3c(-c4ccc(OC(F)F)c(F)c4F)cnc23)ccc1C(=O)N1CCN(C(=O)C2CC[N+](C)(CC34CC(N)(C3)C4)CC2)CC1 (stereo not shown) [Example 86, [4-[1-[(3-amino-1-bicyclo[1.1.1]pentanyl)methyl]-1-methyl-piperidin-1-ium-4-carbonyl]piperazin-1-yl]-[4-[[3-[4-(difluoromethoxy)-2,3-difluoro-phenyl]imidazo[1,2-a]pyrazin-8-yl]amino]-2-ethyl-phenyl]methanone bis(2,2,2-trifluoroacetate)] | 168
9 | CCc1cc(Nc2nccn3c(-c4ccc(OC(F)F)c(F)c4F)cnc23)ccc1C(=O)NCC1CC[N+](C)(CC2CNC2)C1 (stereo not shown) [Example 88, N-[[1-(azetidin-3-ylmethyl)-1-methyl-pyrrolidin-1-ium-3-yl]methyl]-4-[[3-[4-(difluoromethoxy)-2,3-difluoro-phenyl]imidazo[1,2-a]pyrazin-8-yl]amino]-2-ethyl-benzamide bis(2,2,2-trifluoroacetate)] | 485
10 | CCc1cc(Nc2nccn3c(-c4ccc(OC(F)F)c(F)c4F)cnc23)ccc1C(=O)NCCCCC[N+](C)(CC1CNC1)CC1CNC1 [Example 89, Bis(azetidin-3-ylmethyl)-[5-[[4-[[3-[4-(difluoromethoxy)-2,3-difluoro-phenyl]imidazo[1,2-a]pyrazin-8-yl]amino]-2-ethyl-benzoyl]amino]pentyl]-methyl-ammonium bis(2,2,2-trifluoroacetate)] | 634
11 | CCc1cc(Nc2nccn3c(-c4ccc(OC(F)F)c(F)c4F)cnc23)ccc1C(=O)NCCC(=O)N1CC[N+](C)(CC2CNC2)CC1 [Example 92, N-[3-[4-(Azetidin-3-ylmethyl)-4-methyl-piperazin-4-ium-1-yl]-3-oxo-propyl]-4-[[3-[4-(difluoromethoxy)-2,3-difluoro-phenyl]imidazo[1,2-a]pyrazin-8-yl]amino]-2-ethyl-benzamide bis(2,2,2-trifluoroacetate)] | 332
12 | CCc1cc(Nc2nccn3c(-c4ccc(OC(F)F)c(F)c4F)cnc23)ccc1C(=O)N1CCN(C(=O)C2CC[N+](C)(CC3CNC3)CC2)CC1C(=O)OC (stereo not shown) [Example 93, Methyl 4-[1-(azetidin-3-ylmethyl)-1-methyl-piperidin-1-ium-4-carbonyl]-1-[4-[[3-[4-(difluoromethoxy)-2,3-difluoro-phenyl]imidazo[1,2-a]pyrazin-8-yl]amino]-2-ethyl-benzoyl]piperazine-2-carboxylate bis(2,2,2-trifluoroacetate)] | 909
13 | CCc1cc(Nc2nccn3c(-c4ccc(OC(F)F)c(F)c4F)cnc23)ccc1C(=O)N1CCN(C(=O)C2CC[N+](C)(CC3CNC3)CC2)C(C(=O)OC)C1 (stereo not shown) [Example 94, methyl 1-[1-(azetidin-3-ylmethyl)-1-methyl-piperidin-1-ium-4-carbonyl]-4-[4-[[3-[4-(difluoromethoxy)-2,3-difluoro-phenyl]imidazo[1,2-a]pyrazin-8-yl]amino]-2-ethyl-benzoyl]piperazine-2-carboxylate tris(2,2,2-trifluoroacetate)] | 457
14 | CCc1cc(Nc2nccn3c(-c4ccc(OC(F)F)c(F)c4F)cnc23)ccc1C(=O)N1CC2(C1)CN(C(=O)C1CC[N+](C)(CC3CCNC3)CC1)C2 (stereo not shown) [Example 95, [4-[[3-[4-(difluoromethoxy)-2,3-difluoro-phenyl]imidazo[1,2-a]pyrazin-8-yl]amino]-2-ethyl-phenyl]-[2-[1-methyl-1-(pyrrolidin-3-ylmethyl)piperidin-1-ium-4-carbonyl]-2,6-diazaspiro[3.3]heptan-6-yl]methanone bis(2,2,2-trifluoroacetate)] | 725
15 | CCc1cc(Nc2nccn3c(-c4ccc(OC(F)F)c(F)c4F)cnc23)ccc1C(=O)NCCCCC[N+](C)(C)CC1CNC1 [Example 96, Azetidin-3-ylmethyl-[5-[[4-[[3-[4-(difluoromethoxy)-2,3-difluoro-phenyl]imidazo[1,2-a]pyrazin-8-yl]amino]-2-ethyl-benzoyl]amino]pentyl]-dimethyl-ammonium bis(2,2,2-trifluoroacetate)] | 171
16 | CCc1cc(Nc2nccn3c(-c4ccc(OC(F)F)c(F)c4F)cnc23)ccc1C(=O)N1CCC(C(=O)N2CC[N+](C)(CC3CCNC3)CC2)CC1 (stereo not shown) [Example 97, [4-[[3-[4-(Difluoromethoxy)-2,3-difluoro-phenyl]imidazo[1,2-a]pyrazin-8-yl]amino]-2-ethyl-phenyl]-[4-[4-methyl-4-(pyrrolidin-3-ylmethyl)piperazin-4-ium-1-carbonyl]-1-piperidyl]methanone 2,2,2-trifluoroacetate] | 205

Same assay, conditions: Acinetobacter baumannii, ATCC17961, 16 h, read-out: ATCC 17961 IC90

Row | SMILES | IC90 [nM]
17 | CCc1cc(Nc2nccn3c(-c4ccc(OC(F)F)c(F)c4F)cnc23)ccc1C(=O)NCCCNC(=O)C1CC[N+](C)(CC2CCNC2)CC1 (stereo not shown) [Example 82, N-[3-[[4-[[3-[4-(Difluoromethoxy)-2,3-difluoro-phenyl]imidazo[1,2-a]pyrazin-8-yl]amino]-2-ethyl-benzoyl]amino]propyl]-1-methyl-1-(pyrrolidin-3-ylmethyl)piperidin-1-ium-4-carboxamide bis (2,2,2-trifluoroacetate)] | 110
18 | CCc1cc(Nc2nccn3c(-c4ccc(OC(F)F)c(F)c4F)cnc23)ccc1C(=O)NCC1CC[N+](C)(CC2CNC2)CC1 (stereo not shown) [Example 87, N-[[1-(azetidin-3-ylmethyl)-1-methyl-piperidin-1-ium-4-yl]methyl]-4-[[3-[4-(difluoromethoxy)-2,3-difluoro-phenyl]imidazo[1,2-a]pyrazin-8-yl]amino]-2-ethyl-benzamide Diformate] | 318
19 | CCc1cc(Nc2nccn3c(-c4ccc(OC(F)F)c(F)c4F)cnc23)ccc1C(=O)NCCC1C[N+](C)(CC2CNC2)C1 (stereo not shown) [Example 90, N-[2-[1-(azetidin-3-ylmethyl)-1-methyl-azetidin-1-ium-3-yl]ethyl]-4-[[3-[4-(difluoromethoxy)-2,3-difluoro-phenyl]imidazo[1,2-a]pyrazin-8-yl]amino]-2-ethyl-benzamide Diformate] | 320
